Assay [1] has as its target GluN1/GluN2D (Rattus norvegicus, UniProt P35439+Q62645). Kind of assay: Whole-cell voltage-clamp recordings, HEK cells, GluN1/GluN2D (agonist dependence). In kind it is cell-based. The text has this:
(§1) We previously described the actions of the GluN2C/GluN2D-preferring negative allosteric modulator DQP-1105 as dependent on glutamate (but not glycine) binding, in that DQP-1105 affinity increases after GluN1/GluN2D NMDARs bind glutamate.[32] […] The concentration-dependent relaxation is indicative of an agonist-induced increase in potency that leads to re-equilibration of the inhibitor after agonist binding induces an increase in inhibitor affinity. We investigated the glutamate dependence of compound 2i (GluN1/GluN2D, Figure 4; GluN1/GluN2C, Figure S2), DQP-1105 (Figure S1), and compound (S)-2a (DQP-69;[33]Figure S3) using the same protocols.
(§2) We preincubated cells with glycine and the inhibitor 2i (DQP-997-74) and compared inhibitor potency during the peak and steady-state current responses to glutamate application. […] To investigate the time course of 2i inhibition, we fitted the relaxation of the current response with a single exponential function. If the current response time course reflects 2i binding, then the reciprocal of τinhibition should be linearly related to its concentration, with the slope equal to kON and intercept equal to kOFF. […] The deactivation of GluN1/GluN2D receptors (5.3 ± 0.2 s) was slowed by the presence of compound 2i when applied at concentrations of 0.1 μM (7.3 ± 0.3 s; p = 0.017) and 0.3 μM (10.5 ± 1.0 s; p = 0.002) but not at 0.03 μM (5.6 ± 0.3 s; p = 0.518; Figure 4E). […] This phenomenon was previously discovered for QNZ-46, a glutamate-dependent GluN2C/2D-selective inhibitor with a different structural core.[42] As proposed in that study, the prolonged deactivation may indicate that 2i slows a conformational change necessary for glutamate unbinding or 2i may need to unbind before glutamate can unbind.
(§3) In addition, we evaluated how glutamate dependence affects inhibition of responses to brief agonist applications similar to phasic glutamate release that occurs at synapses. To do so, we preincubated cells expressing GluN1/GluN2D receptors with the inhibitor 2i and then applied trains of five brief pulses of NMDA (which dissociates more rapidly than glutamate) and glycine from a pressurized micropipette to mimic repetitive synaptic transmission (Figure 4F). We measured the peak amplitude and compared the concentration–response curves for the inhibition of the first and last response (Figure 4G). The initial train of pulses in the absence of drug controls for systematic errors such as internalization of receptors.
(§4) To further evaluate whether 2i followed the law of mass action, we coapplied different concentrations of 2i with glutamate during the steady-state glutamate and glycine responses of GluN1/GluN2D receptors expressed in HEK cells (Figure 4H). […] We also fitted the onset and offset time course of the inhibition produced by compound 2i with a single exponential function (Figure 4J).
(§5) HEK293 cells (HEK, ATCC CRL-1573) were plated on glass coverslips pretreated with 0.1 mg/mL poly-D-lysine and cultured in Dulbecco’s modified Eagle medium (DMEM) plus Glutamax (GIBCO 10569-10) supplemented with 10% fetal bovine serum, 10 U/mL of penicillin, and 10 μg/mL of streptomycin at 37 °C and 5% CO2. The cells were transiently transfected with cDNA encoding rat GluN1, GluN2D, and eGFP at a ratio of 1:1:5 by using the calcium phosphate precipitation method.[48] After 24–48 h following the transfection, the cells were perfused with external recording solution that contained (in mM) 3 KCl, 150 NaCl, 0.01 EDTA, 1.0 CaCl2, 10 HEPES, and 22 D-mannitol (the pH was adjusted to 7.4 with NaOH). The patch electrodes (resistance 3–5 MΩ) were prepared from thin-walled glass micropipettes (TW150F-4, World Precision Instruments, Sarasota, FL) by a dual-stage glass micropipette puller (PC-10, Narishige, Tokyo, Japan) and filled with internal solution containing (in mM) 110 D-gluconate, 110 CsOH, 30 CsCl, 5 HEPES, 4 NaCl, 0.5 CaCl2, 2 MgCl2, 5 BAPTA, 2 NaATP, and 0.3 NaGTP. […]

For assay [2], the target named is T1, GluN1/GluN2D (Rattus norvegicus, UniProt Q62645). The assay is described as above. In kind it is cell-based.
T1 sequence (Q62645 28-1323, other chains not shown): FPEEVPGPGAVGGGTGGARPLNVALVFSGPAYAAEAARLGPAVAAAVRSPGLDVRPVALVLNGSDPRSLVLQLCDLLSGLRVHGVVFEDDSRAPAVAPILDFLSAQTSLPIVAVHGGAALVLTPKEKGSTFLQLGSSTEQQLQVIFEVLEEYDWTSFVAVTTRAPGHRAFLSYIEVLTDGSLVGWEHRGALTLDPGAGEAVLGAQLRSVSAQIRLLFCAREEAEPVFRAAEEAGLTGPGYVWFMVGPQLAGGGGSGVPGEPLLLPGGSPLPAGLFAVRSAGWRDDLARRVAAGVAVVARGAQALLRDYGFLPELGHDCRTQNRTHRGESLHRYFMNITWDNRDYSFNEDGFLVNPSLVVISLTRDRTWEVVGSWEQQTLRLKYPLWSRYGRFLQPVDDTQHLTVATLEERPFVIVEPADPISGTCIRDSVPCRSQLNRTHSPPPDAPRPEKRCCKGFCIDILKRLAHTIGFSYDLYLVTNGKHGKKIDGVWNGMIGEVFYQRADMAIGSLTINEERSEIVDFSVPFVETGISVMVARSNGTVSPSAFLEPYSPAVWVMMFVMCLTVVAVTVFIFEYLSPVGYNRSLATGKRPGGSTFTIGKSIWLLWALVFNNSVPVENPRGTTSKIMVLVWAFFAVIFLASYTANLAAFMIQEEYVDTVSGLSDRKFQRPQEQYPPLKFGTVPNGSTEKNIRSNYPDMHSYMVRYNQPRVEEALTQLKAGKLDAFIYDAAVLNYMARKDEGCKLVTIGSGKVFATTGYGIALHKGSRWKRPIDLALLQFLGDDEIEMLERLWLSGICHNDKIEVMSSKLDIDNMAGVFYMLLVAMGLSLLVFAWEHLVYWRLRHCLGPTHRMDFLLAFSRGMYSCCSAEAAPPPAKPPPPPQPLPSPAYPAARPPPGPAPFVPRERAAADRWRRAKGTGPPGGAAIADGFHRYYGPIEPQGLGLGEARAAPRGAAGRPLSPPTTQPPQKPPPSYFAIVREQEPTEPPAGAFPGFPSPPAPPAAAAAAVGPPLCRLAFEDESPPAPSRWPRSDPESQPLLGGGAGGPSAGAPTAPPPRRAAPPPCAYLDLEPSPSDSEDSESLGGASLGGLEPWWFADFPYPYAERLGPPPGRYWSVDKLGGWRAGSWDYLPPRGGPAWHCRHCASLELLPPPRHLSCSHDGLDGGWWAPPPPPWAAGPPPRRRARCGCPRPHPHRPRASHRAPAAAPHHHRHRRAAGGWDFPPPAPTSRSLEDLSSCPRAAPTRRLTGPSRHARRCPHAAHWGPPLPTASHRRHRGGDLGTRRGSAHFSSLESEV
Source text: as §1, §2, §3, §4, §5

For assay [3], the target named is T1, GluN1/GluN2D. More on the design: GluN2B (NM_012574.1), GluN2C (NM_012575.3), and GluN2D (NM_022797.2) were provided by; expressed in transfected cells; host or cells: Xenopus laevis oocytes (cRNA injection). Particulars: cited from earlier work.
Another assay relates to Tsc1^± mice. More on the design: method as in PMID 25081057. The conditions noted are these: 28 mg/kg IP; heterozygote Tsc1^± mice; cited from earlier work.

Molecules are shown by their SMILES. Like-named read-outs stand apart in the source and are kept apart here.

GluN1/GluN2D (Rattus norvegicus, UniProt P35439+Q62645), sequence (Q62645 28-1323, other chains not shown): as above

As usually defined, the koff is a measure of how fast the partners let go of each other. Higher therefore signals fast dissociation. As usually defined, the IC50 is the concentration that inhibits the measured activity by half. The term Kd denotes the concentration at which binding is half-saturated. Read a low Kd as higher affinity. The molecule `Cc1ccc2[nH]c(=O)c(C3=NN(C(=O)CCC(=O)O)C(c4ccc(Br)cc4)C3)c(-c3ccccc3)c2c1` (centres unmarked) [compound 1, reference compound] had a koff on GluN1/GluN2D [1] (HEK293, inhibitor preapplied, linear regression of 1/τinhibition vs concentration) of 0.19 s⁻¹. The half-inhibitory concentration (IC50) at GluN1/GluN2D [1] (fifth of 5 brief NMDA (500 μM)/glycine (250 μM) pulses at 1 s intervals, read-out: IC50 pulse 5 (95% CI)) was 1600 nM; at GluN1/GluN2D [1] (first of 5 brief NMDA (500 μM)/glycine (250 μM) pulses at 1 s intervals, read-out: IC50 pulse 1 (95% CI)), 4900 nM; on GluN1/GluN2D [1] (peak current response to glutamate, inhibitor preapplied, read-out: IC50 peak (95% CI)), 1400 nM; at GluN1/GluN2D [1] (steady-state current response to glutamate, inhibitor preapplied, read-out: IC50 steady-state (95% CI)) it was 720 nM; on GluN1/GluN2D [3], 2700 nM. The Kd at GluN1/GluN2D [1] (inhibitor preapplied, from kON and kOFF, supplement) is 400 nM. In addition, the “τdeactivation following glutamate removal” value is reported as 6.6 ± 0.3 s on GluN1/GluN2D [2] (0.3 μM compound, mean ± SEM); 6.9 ± 0.4 s on GluN1/GluN2D [2] (1 μM compound, mean ± SEM); 8.0 ± 0.4 s on GluN1/GluN2D [2] (3 μM compound, mean ± SEM). The “fold-change in IC50 for the peak and steady-state current responses” value at GluN1/GluN2D [2] (mean ± SEM, compared by ANOVA) worked out at 2.1 ± 0.2. At GluN1/GluN2D [2] (ratio of IC50 values), the “IC50 fold higher during peak compared to steady-state” value amounted to 1.9 fold. In addition, the “IC50 fold higher at first pulse compared to fifth pulse” value at GluN1/GluN2D [2] (trains of brief agonist applications) is on record as 3 fold. For the same molecule, the “effect on seizure burden” value in the assay with Tsc1^± mice is listed as “diminished seizure burden”.

The values are drawn from paper PMC10485906, “Development of a Dihydroquinoline–Pyrazoline GluN2C/2D-Selective Negative Allosteric Modulator of the N-Methyl-D-aspartate Receptor” (ACS Chemical Neuroscience, 2023).
